How the values were obtained:
[1] = target: T1, Beta-adrenergic receptor kinase 1 (Homo sapiens) (UniProt P25098); assay: Inhibition of GRK2 (unknown origin) at 10 uM after 120 mins P33 radiolabeled kinase activity assay
T1 sequence (whole entry): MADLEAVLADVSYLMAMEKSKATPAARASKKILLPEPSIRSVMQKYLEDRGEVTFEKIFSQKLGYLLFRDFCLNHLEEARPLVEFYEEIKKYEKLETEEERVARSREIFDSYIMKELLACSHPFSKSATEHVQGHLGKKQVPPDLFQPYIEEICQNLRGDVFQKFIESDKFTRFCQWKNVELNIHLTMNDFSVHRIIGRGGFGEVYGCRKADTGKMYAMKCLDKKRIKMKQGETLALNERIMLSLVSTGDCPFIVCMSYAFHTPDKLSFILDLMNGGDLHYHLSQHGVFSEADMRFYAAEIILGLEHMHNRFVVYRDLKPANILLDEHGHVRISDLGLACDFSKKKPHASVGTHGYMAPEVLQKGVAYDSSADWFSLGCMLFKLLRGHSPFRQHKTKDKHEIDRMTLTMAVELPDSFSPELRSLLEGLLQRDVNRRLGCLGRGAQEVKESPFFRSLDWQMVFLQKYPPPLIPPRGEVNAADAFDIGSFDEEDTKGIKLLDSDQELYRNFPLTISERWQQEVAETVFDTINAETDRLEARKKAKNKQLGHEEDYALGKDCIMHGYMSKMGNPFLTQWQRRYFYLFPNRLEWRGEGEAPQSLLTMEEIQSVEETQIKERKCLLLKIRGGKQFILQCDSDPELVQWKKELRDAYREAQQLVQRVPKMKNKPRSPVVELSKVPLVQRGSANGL

[2] = target: Serine/threonine-protein kinase pim-1 (Homo sapiens) (UniProt P11309); assay: Inhibition of PIM1 (unknown origin) at 10 uM after 120 mins P33 radiolabeled kinase activity assay
[3] = target: PAS domain-containing serine/threonine-protein kinase (Homo sapiens) (UniProt Q96RG2); assay: Inhibition of PASK (unknown origin) at 10 uM after 120 mins P33 radiolabeled kinase activity assay
[4] = target: Serine/threonine-protein kinase NIM1 (Homo sapiens) (UniProt Q8IY84); assay: Inhibition of NIM1 (unknown origin) at 10 uM after 120 mins P33 radiolabeled kinase activity assay
[5] = target: T2, Discoidin domain-containing receptor 2 (Homo sapiens) (UniProt Q16832); assay: Inhibition of DDR2 (unknown origin) at 10 uM after 120 mins P33 radiolabeled kinase activity assay
T2 sequence (whole entry): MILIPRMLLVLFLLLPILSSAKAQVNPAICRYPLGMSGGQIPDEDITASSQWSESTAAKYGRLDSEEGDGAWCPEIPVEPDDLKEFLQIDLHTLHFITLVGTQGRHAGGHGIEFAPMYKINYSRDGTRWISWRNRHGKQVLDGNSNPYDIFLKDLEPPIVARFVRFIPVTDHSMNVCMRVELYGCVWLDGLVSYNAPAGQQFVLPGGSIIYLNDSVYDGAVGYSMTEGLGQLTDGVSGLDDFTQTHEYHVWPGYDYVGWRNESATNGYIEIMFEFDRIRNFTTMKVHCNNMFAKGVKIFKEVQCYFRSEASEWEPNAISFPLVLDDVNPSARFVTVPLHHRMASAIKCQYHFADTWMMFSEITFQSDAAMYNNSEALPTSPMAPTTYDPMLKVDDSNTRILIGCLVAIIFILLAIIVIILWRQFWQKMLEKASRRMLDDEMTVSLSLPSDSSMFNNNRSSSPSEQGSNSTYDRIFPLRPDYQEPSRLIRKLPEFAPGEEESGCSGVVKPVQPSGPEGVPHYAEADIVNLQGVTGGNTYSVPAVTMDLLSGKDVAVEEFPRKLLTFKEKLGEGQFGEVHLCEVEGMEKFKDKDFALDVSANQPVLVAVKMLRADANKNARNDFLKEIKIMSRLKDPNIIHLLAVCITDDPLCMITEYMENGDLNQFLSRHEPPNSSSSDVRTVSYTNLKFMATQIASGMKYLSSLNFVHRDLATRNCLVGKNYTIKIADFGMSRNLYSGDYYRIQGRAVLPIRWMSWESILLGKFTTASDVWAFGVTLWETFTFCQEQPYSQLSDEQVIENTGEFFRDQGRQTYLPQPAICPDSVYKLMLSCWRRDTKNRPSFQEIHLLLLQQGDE

[6] = target: NT-3 growth factor receptor (Homo sapiens) (UniProt Q16288); assay: Inhibition of TRKC (unknown origin) at 10 uM after 120 mins P33 radiolabeled kinase activity assay
[7] = target: Ribosomal protein S6 kinase alpha-4 (Homo sapiens) (UniProt O75676); assay: Inhibition of MSK2 (unknown origin) at 10 uM after 120 mins P33 radiolabeled kinase activity assay
[8] = target: T3, Ephrin type-B receptor 3 (Homo sapiens) (UniProt P54753); assay: Inhibition of EPHB3 (unknown origin) at 10 uM after 120 mins P33 radiolabeled kinase activity assay
T3 sequence (whole entry): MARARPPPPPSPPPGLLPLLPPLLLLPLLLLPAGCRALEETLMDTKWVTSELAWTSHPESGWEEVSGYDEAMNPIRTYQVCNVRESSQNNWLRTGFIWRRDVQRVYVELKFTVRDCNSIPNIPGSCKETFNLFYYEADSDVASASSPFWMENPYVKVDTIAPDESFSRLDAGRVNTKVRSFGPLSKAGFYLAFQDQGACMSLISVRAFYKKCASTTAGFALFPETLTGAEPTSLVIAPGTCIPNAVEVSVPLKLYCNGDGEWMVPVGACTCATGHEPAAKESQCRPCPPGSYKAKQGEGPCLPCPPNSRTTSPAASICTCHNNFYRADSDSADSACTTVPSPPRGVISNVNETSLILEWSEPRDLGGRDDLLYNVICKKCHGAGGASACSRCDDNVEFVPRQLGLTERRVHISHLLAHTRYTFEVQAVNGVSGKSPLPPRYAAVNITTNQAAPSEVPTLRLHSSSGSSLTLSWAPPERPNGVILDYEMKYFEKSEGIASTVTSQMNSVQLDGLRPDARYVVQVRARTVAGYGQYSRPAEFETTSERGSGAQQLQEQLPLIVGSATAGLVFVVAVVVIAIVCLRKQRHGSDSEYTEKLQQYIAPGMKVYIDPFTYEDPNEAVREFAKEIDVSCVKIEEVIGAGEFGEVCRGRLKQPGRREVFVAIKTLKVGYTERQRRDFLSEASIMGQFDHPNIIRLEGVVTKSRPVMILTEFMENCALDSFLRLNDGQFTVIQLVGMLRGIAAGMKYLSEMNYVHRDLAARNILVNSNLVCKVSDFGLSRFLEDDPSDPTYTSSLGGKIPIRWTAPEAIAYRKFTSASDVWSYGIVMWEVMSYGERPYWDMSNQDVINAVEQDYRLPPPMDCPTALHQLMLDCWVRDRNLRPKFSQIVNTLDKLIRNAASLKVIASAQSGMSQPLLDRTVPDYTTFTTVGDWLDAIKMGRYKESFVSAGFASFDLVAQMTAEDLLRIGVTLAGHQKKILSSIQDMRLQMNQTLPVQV

PAS domain-containing serine/threonine-protein kinase (Homo sapiens), sequence (Q96RG2 whole entry, the tested form may be a part): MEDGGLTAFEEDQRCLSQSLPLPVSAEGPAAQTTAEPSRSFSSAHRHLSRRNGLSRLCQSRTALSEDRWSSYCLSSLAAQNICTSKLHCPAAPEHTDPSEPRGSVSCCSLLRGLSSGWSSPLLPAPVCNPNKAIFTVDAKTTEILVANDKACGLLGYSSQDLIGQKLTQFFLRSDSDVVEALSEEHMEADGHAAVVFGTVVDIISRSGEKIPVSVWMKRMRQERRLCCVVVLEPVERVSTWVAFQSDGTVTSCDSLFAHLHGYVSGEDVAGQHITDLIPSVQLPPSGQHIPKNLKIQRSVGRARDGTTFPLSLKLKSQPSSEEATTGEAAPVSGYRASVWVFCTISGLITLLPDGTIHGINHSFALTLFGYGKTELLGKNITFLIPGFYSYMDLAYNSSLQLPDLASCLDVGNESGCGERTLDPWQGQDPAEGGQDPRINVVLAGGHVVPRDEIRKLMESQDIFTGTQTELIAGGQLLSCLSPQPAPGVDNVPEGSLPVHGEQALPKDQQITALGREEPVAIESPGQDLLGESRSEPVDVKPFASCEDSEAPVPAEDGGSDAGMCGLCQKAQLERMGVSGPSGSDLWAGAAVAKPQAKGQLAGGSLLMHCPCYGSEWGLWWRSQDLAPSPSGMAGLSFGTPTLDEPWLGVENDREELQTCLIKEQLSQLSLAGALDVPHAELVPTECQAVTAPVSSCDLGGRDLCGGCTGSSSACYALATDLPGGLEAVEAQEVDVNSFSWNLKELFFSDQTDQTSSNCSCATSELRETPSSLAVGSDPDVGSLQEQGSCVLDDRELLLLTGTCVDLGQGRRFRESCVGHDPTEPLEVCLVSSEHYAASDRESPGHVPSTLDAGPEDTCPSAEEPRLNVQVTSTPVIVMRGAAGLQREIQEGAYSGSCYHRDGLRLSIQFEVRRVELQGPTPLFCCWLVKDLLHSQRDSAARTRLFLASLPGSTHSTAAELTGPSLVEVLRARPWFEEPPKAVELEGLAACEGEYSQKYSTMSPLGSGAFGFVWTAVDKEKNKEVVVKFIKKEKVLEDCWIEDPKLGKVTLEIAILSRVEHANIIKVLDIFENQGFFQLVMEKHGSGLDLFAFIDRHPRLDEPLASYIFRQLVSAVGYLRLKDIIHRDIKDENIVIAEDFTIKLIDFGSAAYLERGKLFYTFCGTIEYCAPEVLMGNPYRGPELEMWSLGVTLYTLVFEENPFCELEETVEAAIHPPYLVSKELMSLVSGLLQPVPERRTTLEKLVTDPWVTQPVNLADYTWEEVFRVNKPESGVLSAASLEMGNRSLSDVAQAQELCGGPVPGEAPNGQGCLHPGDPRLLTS
Serine/threonine-protein kinase NIM1 (Homo sapiens), sequence (Q8IY84 whole entry, the tested form may be a part): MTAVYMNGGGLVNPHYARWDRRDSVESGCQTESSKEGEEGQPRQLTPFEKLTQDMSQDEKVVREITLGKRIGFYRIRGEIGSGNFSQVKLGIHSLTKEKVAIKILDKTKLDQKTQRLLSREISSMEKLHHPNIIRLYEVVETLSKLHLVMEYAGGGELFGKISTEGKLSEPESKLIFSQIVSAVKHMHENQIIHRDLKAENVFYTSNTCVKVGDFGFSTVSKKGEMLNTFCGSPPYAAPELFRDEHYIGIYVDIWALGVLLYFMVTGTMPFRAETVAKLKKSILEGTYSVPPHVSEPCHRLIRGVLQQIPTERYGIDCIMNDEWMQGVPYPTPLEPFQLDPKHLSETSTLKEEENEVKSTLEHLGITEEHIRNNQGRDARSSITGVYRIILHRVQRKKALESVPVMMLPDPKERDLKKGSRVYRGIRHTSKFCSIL
Ribosomal protein S6 kinase alpha-4 (Homo sapiens), sequence (O75676 whole entry, looked up): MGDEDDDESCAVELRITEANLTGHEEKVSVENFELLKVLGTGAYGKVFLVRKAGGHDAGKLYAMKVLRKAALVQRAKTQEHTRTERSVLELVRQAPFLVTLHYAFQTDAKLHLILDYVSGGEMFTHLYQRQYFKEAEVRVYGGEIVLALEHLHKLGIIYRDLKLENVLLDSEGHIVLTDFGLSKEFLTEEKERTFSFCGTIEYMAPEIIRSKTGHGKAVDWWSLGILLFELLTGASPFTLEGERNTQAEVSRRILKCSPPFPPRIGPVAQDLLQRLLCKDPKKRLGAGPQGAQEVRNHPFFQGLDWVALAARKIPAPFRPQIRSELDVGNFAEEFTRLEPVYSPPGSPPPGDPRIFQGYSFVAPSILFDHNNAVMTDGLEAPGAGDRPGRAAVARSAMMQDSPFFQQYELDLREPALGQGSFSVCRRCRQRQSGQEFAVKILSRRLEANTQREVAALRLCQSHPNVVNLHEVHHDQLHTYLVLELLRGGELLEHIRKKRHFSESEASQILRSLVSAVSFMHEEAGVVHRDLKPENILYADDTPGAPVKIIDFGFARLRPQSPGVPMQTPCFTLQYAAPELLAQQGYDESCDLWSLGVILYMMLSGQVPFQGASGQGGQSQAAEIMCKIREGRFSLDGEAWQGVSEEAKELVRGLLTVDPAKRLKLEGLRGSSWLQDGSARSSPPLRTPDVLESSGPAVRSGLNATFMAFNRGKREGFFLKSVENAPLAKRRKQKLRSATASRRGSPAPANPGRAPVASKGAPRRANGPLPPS
NT-3 growth factor receptor (Homo sapiens), sequence (Q16288 32-839 limits assumed): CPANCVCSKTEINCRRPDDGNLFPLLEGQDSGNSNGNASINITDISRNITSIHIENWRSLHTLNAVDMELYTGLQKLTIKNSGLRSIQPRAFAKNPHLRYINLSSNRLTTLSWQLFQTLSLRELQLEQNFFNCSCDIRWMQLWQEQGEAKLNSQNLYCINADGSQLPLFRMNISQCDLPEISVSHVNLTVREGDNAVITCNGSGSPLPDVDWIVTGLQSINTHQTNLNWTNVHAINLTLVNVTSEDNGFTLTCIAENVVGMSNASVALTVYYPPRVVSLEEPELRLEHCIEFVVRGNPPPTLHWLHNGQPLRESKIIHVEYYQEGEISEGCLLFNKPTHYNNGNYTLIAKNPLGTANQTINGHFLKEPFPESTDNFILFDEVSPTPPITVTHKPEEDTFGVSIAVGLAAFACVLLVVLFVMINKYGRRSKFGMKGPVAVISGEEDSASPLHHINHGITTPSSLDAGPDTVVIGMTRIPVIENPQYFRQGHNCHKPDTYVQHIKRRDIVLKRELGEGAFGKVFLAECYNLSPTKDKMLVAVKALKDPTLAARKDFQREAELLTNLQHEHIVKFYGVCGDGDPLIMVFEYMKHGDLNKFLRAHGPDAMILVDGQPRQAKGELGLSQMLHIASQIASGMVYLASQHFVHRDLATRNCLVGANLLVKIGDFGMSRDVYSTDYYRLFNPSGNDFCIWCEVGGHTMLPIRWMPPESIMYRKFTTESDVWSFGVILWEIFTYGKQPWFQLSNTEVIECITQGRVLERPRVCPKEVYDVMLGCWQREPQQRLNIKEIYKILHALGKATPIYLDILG
Serine/threonine-protein kinase pim-1 (Homo sapiens), sequence (P11309 whole entry, looked up, the tested form may be a part): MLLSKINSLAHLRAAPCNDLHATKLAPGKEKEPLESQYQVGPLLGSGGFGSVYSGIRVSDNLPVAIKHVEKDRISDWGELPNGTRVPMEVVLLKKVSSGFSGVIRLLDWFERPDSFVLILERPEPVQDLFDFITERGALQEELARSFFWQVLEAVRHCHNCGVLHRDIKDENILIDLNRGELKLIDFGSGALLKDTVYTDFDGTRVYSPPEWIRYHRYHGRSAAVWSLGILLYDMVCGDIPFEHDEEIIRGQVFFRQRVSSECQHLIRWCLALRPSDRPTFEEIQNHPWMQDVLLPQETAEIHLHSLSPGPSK

| inhibition [1] [%] | inhibition [2] [%] | inhibition [3] [%] | inhibition [4] [%] | inhibition [5] [%] | inhibition [6] [%] | inhibition [7] [%] | inhibition [8] [%] | Compound |
| --- | --- | --- | --- | --- | --- | --- | --- | --- |
| 4.42 | 10.6 | -0.14 | 5.74 | 99 | 84.8 | 19.5 | 7.1 | CS(=O)(=O)c1cccc(Nc2nccc(-c3sc(N4CCOCC4)nc3-c3cccc(NS(=O)(=O)c4c(F)cccc4F)c3)n2)c1 |
| 2.91 | 7.46 | -2.42 | 3.72 | 28.2 | 11.8 | 4.4 | 5.87 | COCCNC(=O)c1ccc2c(c1)nc(-c1cnc(-c3ccc(Cl)cc3)[nH]1)n2CCOC |
| 2.3 | 64.5 | 10.9 | 4.76 | 98 | 99.7 | 70.5 | 93.3 | CC(C)(C)c1cc(NC(=O)Nc2ccc(Oc3ccncc3)cc2)no1 |
